One series concerns the target T1, human PAFR (Homo sapiens, UniProt P25105).
T1 construct: expressed in transfected cells; host or cells: HEK293
The series can be described thus: cellular HTRF IP1 endpoint assay: inhibition of PAFR activation by PAF C-16 ligand. It counts as cell-based. The settings on record: HEK293 cells overexpressing human PAFR; PAF ligand 11 nM. As for the experimental part:
The ability of compounds of formula (I.0) to inhibit the activation of the PAF receptor (PAFR) by the PAF C-16 ligand (PAF) is determined using the following cellular HTRF IP1 assay (IP1 Gq assay kit from Cisbio, Cat. no.: 62IP1APEJ) in assay buffer (1×HBSS, 20 mM Hepes, pH 7.4, 50 mM LiCl and containing 0.1% (w/v) BSA):
HEK293 cells overexpressing human PAFR (produced in-house) are seeded into a Poly-D-Lysine coated 384 well white cell culture microtiter assay plate with lid (15.000 cells per well). Subsequently, the plates are incubated over night at 37° C./5% CO2. On the next day, cells are being washed and subsequently, various concentrations of the test compounds (compounds in 100% DMSO; final concentration of DMSO in wells is 1%) are added to the assay plate via Echo 555 acoustic liquid handler. Plates are then incubated with lid for 90 minutes at 37° C./5% CO2. Thereafter, PAF ligand (Cayman Chemical Company, Item no.: 60900) is added at a final concentration of 11 nM. Plates are then incubated with lid for 60 minutes at 37° C./5% CO2. Then, 5 μl per well of Anti-IP1-Anti body-Cryptate solution and 5 μL per well of IP1-d2 solution are added to all wells of the plate and the plate is incubated for another 60 minutes light protected at room temperature. The emissions at 620 nm and 665 nm (Excitation wavelength: 320 nm) are measured using an Envision Reader (PerkinElmer).
For orientation: Time-resolved FRET reads energy transfer from a long-lived donor to a nearby acceptor.

Series [1] can be described thus: aqueous solubility in buffer (from DMSO stock, 24 h shaking, LC-UV). The settings on record: pH 2.2, aqueous buffer, kinetic from dmso stock.
Experimental: The aqueous solubility of the test compound is determined by comparing the amount dissolved in buffer to the amount in an ACN/water (1/1) solution. Starting from a 10 mM DMSO stock solution aliquots are diluted with ACN/water (1/1) or buffer, respectively. After 24 h of shaking, the solutions are filtrated and analyzed by LC-UV. The amount dissolved in buffer is compared to the amount in the ACN solution.
Solubility will usually be measured from 0.001 to 0.125 mg/mL at a DMSO concentration of 2.5%. If more than 90% of the compound is dissolved in buffer, the value is marked with “>”.

We go through 30 molecules from patent US11766443B2, “Cyclopentathiophene carboxamide derivatives as platelet activating factor receptor antagonists” (Boehringer Ingelheim International GmbH, priority 2021, dated 2023).

Converted amounts (≈) assume the structure as drawn.

T1 sequence (P25105 whole entry): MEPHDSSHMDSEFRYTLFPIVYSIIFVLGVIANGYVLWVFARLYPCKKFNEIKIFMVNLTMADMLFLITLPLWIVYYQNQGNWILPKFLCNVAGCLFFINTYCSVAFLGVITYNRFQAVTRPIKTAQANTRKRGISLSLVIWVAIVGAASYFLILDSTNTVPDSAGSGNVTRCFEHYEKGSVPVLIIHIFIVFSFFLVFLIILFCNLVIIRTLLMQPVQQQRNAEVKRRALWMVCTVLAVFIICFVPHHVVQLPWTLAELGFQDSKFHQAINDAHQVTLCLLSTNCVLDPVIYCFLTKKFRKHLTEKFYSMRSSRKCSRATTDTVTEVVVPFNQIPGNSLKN

One may read the IC50 as the point on the concentration scale where inhibition reaches its midpoint. Lower therefore signals higher potency. The solubility is the dissolved amount per volume that the medium holds. Low values mean a poorly soluble substance, high ones a readily soluble substance. `Cc1nnc2n1-c1sc3c(c1[C@H](c1ccccc1Cl)NC2)C[C@H](C(=O)NCc1cccc(C(F)(F)F)n1)C3` [Example 35] registered an IC50 against human PAFR of 3.8 nM. Besides, the solubility at 24 h in series [1] is 106 µg/mL (≈ 190 µM).
`Cc1nnc2n1-c1sc3c(c1[C@H](c1ccccc1Cl)NC2)C[C@H](C(=O)N1CC(C)(C)C1)C3` [Example 24] yielded an IC50 at human PAFR of 2 nM. Also, the solubility at 24 h in series [1] is above 105 µg/mL.
In turn, `Cc1nnc2n1-c1sc3c(c1[C@H](c1ccccc1Cl)NC2)C[C@H](C(=O)NCc1ncccc1C(F)(F)F)C3` [Example 36] came in with an IC50 on human PAFR of 3 nM. In series [1], this molecule displayed a solubility at 24 h of 95 µg/mL (≈ 170 µM).
For `Cc1nnc2n1-c1sc3c(c1[C@@H](c1ccccc1Cl)NC2)C[C@H](C(=O)NCc1ccc(OC(F)F)nc1)C3` [Example 11], at human PAFR, half-maximal inhibition (IC50) was put at 53 nM. Further, the concentration in solution in series [1] (solubility at 24 h) was 105 µg/mL (≈ 189 µM).
Molecule `CCc1nnc2n1-c1sc3c(c1[C@@H](c1ccccc1Cl)NC2)C[C@H](C(=O)N1CCOCC1)C3` [Example 68] gave an IC50 on human PAFR above 999 nM. The same molecule returned a solubility at 24 h in series [1] above 116 µg/mL.
`Cc1nnc2n1-c1sc3c(c1[C@H](c1ccccc1Cl)NC2)C[C@H](C(=O)NCc1cncc(C(F)(F)F)c1)C3` [Example 43]: on human PAFR, the IC50 amounted to 2.6 nM. The molecule also gave a solubility at 24 h in series [1] of 104 µg/mL (≈ 186 µM).
As for `Cc1ncsc1CNC(=O)[C@@H]1Cc2sc3c(c2C1)[C@H](c1ccccc1Cl)NCc1nnc(C)n1-3` [Example 48], at human PAFR, inhibition was half-maximal at 15 nM (IC50). The same molecule displayed a solubility at 24 h in series [1] above 128 µg/mL.
With `Cc1nnc2n1-c1sc3c(c1[C@H](c1ccccc1Cl)NC2)C[C@H](C(=O)NCc1cc(C(F)(F)F)ccn1)C3` [Example 37], inhibition against human PAFR was half-maximal at 2.9 nM (IC50). The molecule also gave a solubility at 24 h in series [1] of 100 µg/mL (≈ 179 µM).
`Cc1nnc2n1-c1sc3c(c1[C@H](c1ccccc1Cl)NC2)C[C@H](C(=O)N1CCC(F)(F)CC1)C3` [Example 18]: at human PAFR, the half-maximal inhibitory concentration (IC50) was found to be 3.1 nM. In series [1], this molecule returned a solubility at 24 h above 112 µg/mL.
`Cc1nnc2n1-c1sc3c(c1[C@H](c1ccccc1Cl)NC2)C[C@H](C(=O)N1C[C@@H](C)O[C@H](C)C1)C3` [Example 5] yielded an IC50 on human PAFR of 8.2 nM. This molecule also showed a solubility at 24 h in series [1] of 95 µg/mL (≈ 191 µM).
As to `COc1ccc(CNC(=O)[C@@H]2Cc3sc4c(c3C2)[C@H](c2ccccc2Cl)NCc2nnc(C)n2-4)cn1` [Example 41], the IC50 at human PAFR is 11 nM. For the same molecule, the solubility at 24 h in series [1] was above 119 µg/mL.
In turn, `Cc1nnc2n1-c1sc3c(c1[C@H](c1ccccc1Cl)NC2)C[C@H](C(=O)NC1(c2ccc(Cl)cn2)CC1)C3` [Example 10] gave a half-maximal inhibitory concentration (IC50) at human PAFR of 1.3 nM. Further, the solubility at 24 h in series [1] is above 140 µg/mL.
Take `Cc1nnc2n1-c1sc3c(c1C(c1ccccc1Cl)NC2)CC(C(=O)N1CCOCC1)C3` (racemic) [Example 1, 9-(2-Chlorophenyl)-3-methyl-13-(morpholine-4-carbonyl)-16-thia-2,4,5,8-tetraazatetracyclo[8.6.0.0^2,6.0^11,15]-hexadeca-1(10),3,5,11(15)-tetraene]: the concentration for half-maximal inhibition (IC50) at human PAFR was determined as 102 nM. The molecule also yielded a solubility at 24 h in series [1] above 115 µg/mL.
`Cc1nnc2n1-c1sc3c(c1[C@H](c1ccccc1Cl)NC2)C[C@H](C(=O)N(C)Cc1ccccc1)C3` [Example 34] yielded an IC50 at human PAFR of 2.1 nM. The solubility at 24 h in series [1] is above 126 µg/mL.
Consider `Cc1nnc2n1-c1sc3c(c1[C@H](c1ccccc1Cl)NC2)C[C@H](C(=O)NCc1ccnnc1)C3` [Example 44], for which, at human PAFR, the IC50 stood at 41 nM. This molecule came in with a solubility at 24 h in series [1] above 112 µg/mL.
The matching figures for `CCCN(CCC)C(=O)[C@@H]1Cc2sc3c(c2C1)[C@@H](c1ccccc1Cl)NCc1nnc(C)n1-3` [Example 72, (9S,13S)-9-(2-Chlorophenyl)-3-methyl-N,N-dipropyl-16-thia-2,4,5,8-tetraazatetracyclo[8.6.0.0^2,6.0^11,15]hexadeca-1(10),3,5,11(15)-tetraene-13-carboxamide]: 8.1 nM and above 101 µg/mL.
In turn, `CSc1ccccc1C1NCc2nnc(C)n2-c2sc3c(c21)C[C@H](C(=O)N1CCOCC1)C3` (mixture of isomers) [Example 79, 3-Methyl-9-[2-(methylsulfanyl)phenyl]-13-(morpholine-4-carbonyl)-16-thia-2,4,5,8-tetraazatetracyclo[8.6.0.0^2,6.0^11,15]hexadeca-1(10),3,5,11(15)-tetraene] gave an IC50 against human PAFR of 235 nM. In series [1], this molecule came in with a solubility at 24 h above 119 µg/mL.
For `Cc1nnc2n1-c1sc3c(c1[C@H](c1ccccc1Cl)NC2)C[C@H](C(=O)N[C@@H]1CCC(F)(F)C1)C3` [Example 16], in that order: 1.4 nM and above 118 µg/mL.
Consider `Cc1ccccc1[C@@H]1NCc2nnc(C)n2-c2sc3c(c21)C[C@H](C(=O)N1CCOCC1)C3` [Example 64, (9S,13S)-3-methyl-9-(2-methylphenyl)-13-(morpholine-4-carbonyl)-16-thia-2,4,5,8-tetraazatetracyclo[8.6.0.0^2,6.0^11,15]-hexadeca-1(10),3,5,11(15)-tetraene], for which the IC50 against human PAFR came out at 210 nM. This molecule displayed a solubility at 24 h in series [1] above 108 µg/mL.
In turn, `Cc1nnc2n1-c1sc3c(c1[C@H](c1ccccc1Cl)NC2)C[C@H](C(=O)NC12CC(C1)C2)C3` [Example 51] showed an IC50 at human PAFR of 2.2 nM. Further, the solubility at 24 h in series [1] was above 116 µg/mL.
As for `Cc1nnc2n1-c1sc3c(c1[C@@H](c1ccccc1Cl)NC2)C[C@H](C(=O)NC1CCC1)C3` [Example 9], the IC50 against human PAFR was found to be 34 nM. The molecule also gave a solubility at 24 h in series [1] above 105 µg/mL.
For `Cc1nnc2n1-c1sc3c(c1[C@H](c1ccccc1Cl)NC2)C[C@H](C(=O)N1CCO[C@@H](C)C1)C3` [Example 4, (9R,13S)-9-(2-Chlorophenyl)-3-methyl-13-[(2S)-2-methylmorpholine-4-carbonyl]-16-thia-2,4,5,8-tetraazatetracyclo-[8.6.0.0^2,6.0^11,15]hexadeca-1(10)3,5,11(15)-tetraene], the IC50 at human PAFR stood at 6.8 nM. The solubility at 24 h in series [1] was above 113 µg/mL.
At human PAFR, `Cc1nnc2n1-c1sc3c(c1[C@H](c1ccccc1Cl)NC2)C[C@H](C(=O)N1CC2(CCOCC2)C1)C3` [Example 30] showed an IC50 of 12 nM. Besides, the concentration in solution in series [1] (solubility at 24 h) came to 80 µg/mL (≈ 157 µM).
For `Cc1nnc2n1-c1sc3c(c1[C@H](c1ccccc1Cl)NC2)C[C@H](C(=O)N[C@@H](C)CF)C3` [Example 20], in that order: 4.5 nM and above 128 µg/mL.
Molecule `Cc1noc(C)c1NC(=O)[C@@H]1Cc2sc3c(c2C1)[C@H](c1ccccc1Cl)NCc1nnc(C)n1-3` [Example 25] registered an IC50 at human PAFR of 4.3 nM. In series [1], the solubility at 24 h is above 136 µg/mL.
The molecule `Cc1nnc2n1-c1sc3c(c1[C@H](c1ccccc1Cl)NC2)C[C@H](C(=O)NCc1ccc(C(F)(F)F)cc1)C3` [Example 14] came in with an IC50 against human PAFR of 0.4 nM. In series [1], this molecule returned a solubility at 24 h of 109 µg/mL (≈ 195 µM).
`Cc1nnc2n1-c1sc3c(c1[C@H](c1ccccc1Cl)NC2)C[C@H](C(=O)NCc1ccccc1)C3` [Example 31] returned an IC50 at human PAFR of 1.1 nM. In addition, the solubility at 24 h in series [1] is above 132 µg/mL.
The molecule `Cc1nnc2n1-c1sc3c(c1[C@H](c1ccccc1Cl)NC2)C[C@H](C(=O)N1C[C@@H](C)O[C@@H](C)C1)C3` [Example 27] yielded an IC50 on human PAFR of 5.5 nM. This molecule also gave a solubility at 24 h in series [1] above 133 µg/mL.
The matching figures for `Cc1nnc2n1-c1sc3c(c1[C@H](c1ccccc1Cl)NC2)C[C@H](C(=O)NCc1ccnc(C(F)(F)F)c1)C3` [Example 45]: 1.9 nM and above 140 µg/mL.
`Cc1nnc2n1-c1sc3c(c1[C@H](c1ccccc1Cl)NC2)C[C@H](C(=O)N1CCC1)C3` [Example 32] came in with an IC50 on human PAFR of 34 nM. In series [1], the solubility at 24 h was above 139 µg/mL.
